Laboratory results as given in PubChem BioAssay AID1919002 (Molecular Pharmacology Branch, DTP, NCI, 2023).
Values joined by “and” are separate entries in the source; they are usually repeats but may differ in a detail not shown here. Equal entries are not always repeated.

Tested on: 743489-274-T-PDC complex spheroid growth
Assay: Anticancer human tumor 743489-274-T-PDC patient-derived renal cell carcinoma cell line growth inhibition [AhR]
Conditions: for viability, T/C: stronger effect = lower value
Outline: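 Spheroids combined tumor cells with HUVEC endothelial cells and human MSCs as stroma. AhR antagonists were paired with standard or investigational drugs, each dosed in half-log steps down from near clinical Cmax, or from 10 microM where Cmax was unknown.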

[1] = curve of first compound, second compound 0.1 µM
[2] = curve of first compound, second compound 0.316 µM
[3] = curve of first compound, second compound 1 µM
[4] = curve of first compound, second compound 3.16 µM
[5] = curve of first compound, second compound 10 µM
[6] = second compound 0.1 µM, first compound 0.0316 µM
[7] = second compound 0.1 µM, first compound 0.1 µM
[8] = second compound 0.1 µM, first compound 0.316 µM
[9] = second compound 0.1 µM, first compound 1 µM
[10] = second compound 0.316 µM, first compound 0.0316 µM
[11] = second compound 0.316 µM, first compound 0.1 µM
[12] = second compound 0.316 µM, first compound 0.316 µM
[13] = second compound 0.316 µM, first compound 1 µM
[14] = second compound 1 µM, first compound 0.0316 µM
[15] = second compound 1 µM, first compound 0.1 µM
[16] = second compound 1 µM, first compound 0.316 µM
[17] = second compound 1 µM, first compound 1 µM
[18] = second compound 3.16 µM, first compound 0.0316 µM
[19] = second compound 3.16 µM, first compound 0.1 µM
[20] = second compound 3.16 µM, first compound 0.316 µM
[21] = second compound 3.16 µM, first compound 1 µM
[22] = second compound 10 µM, first compound 0.0316 µM
[23] = second compound 10 µM, first compound 0.1 µM
[24] = second compound 10 µM, first compound 0.316 µM
[25] = second compound 10 µM, first compound 1 µM
[26] = second compound 0.1 µM, first compound 3.16 µM
[27] = second compound 0.1 µM, first compound 10 µM
[28] = second compound 0.316 µM, first compound 3.16 µM
[29] = second compound 0.316 µM, first compound 10 µM
[30] = second compound 1 µM, first compound 3.16 µM
[31] = second compound 1 µM, first compound 10 µM
[32] = second compound 3.16 µM, first compound 3.16 µM
[33] = second compound 3.16 µM, first compound 10 µM
[34] = second compound 10 µM, first compound 3.16 µM
[35] = second compound 10 µM, first compound 10 µM
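Further: spheroids exposed to agents for 7 days before readout.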
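Wherever viability, T/C is given: 100% = DMSO vehicle control wells.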

Row | Compound | IC50 [1] [µM] | IC50 [2] [µM] | IC50 [3] [µM] | IC50 [4] [µM] | IC50 [5] [µM] | viability, T/C [6] [%] | viability, T/C [7] [%] | viability, T/C [8] [%] | viability, T/C [9] [%] | viability, T/C [10] [%] | viability, T/C [11] [%] | viability, T/C [12] [%] | viability, T/C [13] [%] | viability, T/C [14] [%] | viability, T/C [15] [%] | viability, T/C [16] [%] | viability, T/C [17] [%] | viability, T/C [18] [%] | viability, T/C [19] [%] | viability, T/C [20] [%] | other results
1 | Nc1ncn(C2CC(O)C(CO)O2)c(=O)n1 (configuration not stated) + CC(CO)NC(=O)c1cc(-c2ccc(Cl)cc2)nn(-c2cnn(C)c2)c1=O | > 1 | > 1 | > 1 | > 1 | > 1 | 98.4 | 87.5 | 99.4 | 91.4 | 91 | 98 | 84.5 | 85.3 | 89.9 | 94.7 | 101 | 88.6 | 96 | 92.3 | 85 | viability, T/C (second compound 0.1 µM, first compound 0.00316 µM): 88.6%; viability, T/C (second compound 0.1 µM, first compound 0.01 µM): 93.4%; viability, T/C (second compound 0.316 µM, first compound 0.00316 µM): 80.4%; viability, T/C (second compound 0.316 µM, first compound 0.01 µM): 89.9%; viability, T/C (second compound 1 µM, first compound 0.00316 µM): 94.8%; viability, T/C (second compound 1 µM, first compound 0.01 µM): 93.2%; viability, T/C (second compound 3.16 µM, first compound 0.00316 µM): 95.2%; viability, T/C (second compound 3.16 µM, first compound 0.01 µM): 85.2%; viability, T/C [21]: 84.3%; viability, T/C (second compound 10 µM, first compound 0.00316 µM): 88.2%; viability, T/C (second compound 10 µM, first compound 0.01 µM): 96%; viability, T/C [22]: 88.7%; viability, T/C [23]: 93.9%; viability, T/C [24]: 82.9%; viability, T/C [25]: 107%
2 | COc1cc(Nc2ncc3c(n2)-c2ccc(Cl)cc2C(c2c(F)cccc2OC)=NC3)ccc1C(=O)O + Cc1cncc(-c2nc(NCCc3c[nH]c4ccccc34)c3ncn(C(C)C)c3n2)c1 | > 10 | > 10 | > 10 | > 10 | > 10 | 94.2 | 103 | 84.6 | 99.8 | 97.7 | 85 | 94 | 85.1 | 99 | 95.2 | 95.9 | 86 | 107 | 98 | 96.1 | viability, T/C [26]: 93.7%; viability, T/C [27]: 91.8%; viability, T/C [28]: 85%; viability, T/C [29]: 78.9%; viability, T/C [30]: 95.3%; viability, T/C [31]: 82.4%; viability, T/C [21]: 107%; viability, T/C [32]: 90.1%; viability, T/C [33]: 98.9%; viability, T/C [22]: 119%; viability, T/C [23]: 126%; viability, T/C [24]: 101%; viability, T/C [25]: 76.8%; viability, T/C [34]: 79.4%; viability, T/C [35]: 85.8%
3 | Nc1ccn(C2OC(CO)C(O)C2(F)F)c(=O)n1 (configuration not stated) |  |  |  |  |  |  |  |  |  |  |  |  |  |  |  |  |  |  |  |  | viability, T/C (compound 0.0316 µM): 92.4% and 67.2% and 87.8%; viability, T/C (compound 0.1 µM): 73.3% and 58.7% and 72.8%; viability, T/C (compound 0.316 µM): 69.8% and 60.6% and 73.5%; viability, T/C (compound 1 µM): 63% and 53.5% and 70.8%; viability, T/C (compound 3.16 µM): 71.4% and 61.4% and 66.6%; viability, T/C (compound 10 µM): 73.7% and 62.2% and 66.3%; IC50 (curve of compound): > 10 µM
4 | COc1cccc2c1C(=O)c1c(O)c3c(c(O)c1C2=O)CC(O)(C(=O)CO)CC3OC1CC(N)C(O)C(C)O1 (configuration not stated) + CC(CO)NC(=O)c1cc(-c2ccc(Cl)cc2)nn(-c2cnn(C)c2)c1=O | 8.45 | 9.32 | 8.98 | 6.53 | 3.24 | 101 | 106 | 107 | 96.3 | 93.7 | 106 | 108 | 93.5 | 110 | 95 | 107 | 97 | 88 | 91.6 | 108 | viability, T/C [26]: 108%; viability, T/C [27]: 40.6%; viability, T/C [28]: 102%; viability, T/C [29]: 46.7%; viability, T/C [30]: 93.2%; viability, T/C [31]: 45.5%; viability, T/C [21]: 96.7%; viability, T/C [32]: 88.2%; viability, T/C [33]: 27.4%; viability, T/C [22]: 92%; viability, T/C [23]: 103%; viability, T/C [24]: 101%; viability, T/C [25]: 89.7%; viability, T/C [34]: 51.2%; viability, T/C [35]: 0.36%
5 | O=C(c1cc(Cc2n[nH]c(=O)c3ccccc23)ccc1F)N1CCN(C(=O)C2CC2)CC1 + Cc1cncc(-c2nc(NCCc3c[nH]c4ccccc34)c3ncn(C(C)C)c3n2)c1 | > 10 | > 10 | > 10 | > 10 | > 10 | 91.6 | 96.4 | 99 | 88.3 | 87.1 | 84.4 | 94.2 | 86.2 | 98.8 | 99.9 | 94.5 | 93.2 | 93.3 | 102 | 100 | viability, T/C [26]: 86.1%; viability, T/C [27]: 85.6%; viability, T/C [28]: 82.1%; viability, T/C [29]: 88.4%; viability, T/C [30]: 89.9%; viability, T/C [31]: 85.4%; viability, T/C [21]: 90%; viability, T/C [32]: 85.7%; viability, T/C [33]: 95.1%; viability, T/C [22]: 104%; viability, T/C [23]: 102%; viability, T/C [24]: 111%; viability, T/C [25]: 102%; viability, T/C [34]: 105%; viability, T/C [35]: 103%
